What all share (assay type): nucleic-acid assay
Experiment [1] deals with Nucleic Acid. Put plainly: DNA cleavage activity using supercoiled bacteriophage (piX174Rf III) DNA at 10e-4 M concentration (0% control).
The test system of experiment [2] is Nucleic Acid. Put plainly: DNA cleavage activity using supercoiled bacteriophage (piX174Rf III) DNA at 10e-5 M concentration (0% control).
Experiment [3] relates to Nucleic Acid. Put plainly: DNA cleavage activity using supercoiled bacteriophage (piX174Rf I) DNA at 10e-3 M concentration (95% control).
In experiment [4] the test system is Nucleic Acid. Put plainly: DNA cleavage activity using supercoiled bacteriophage (piX174Rf III) DNA at 10e-3 M concentration (0% control).
Experiment [5] relates to Nucleic Acid. Put plainly: DNA cleavage activity using supercoiled bacteriophage (piX174Rf II) DNA at 10e-3 M concentration (5% control).
Experiment [6] concerns Nucleic Acid. Put plainly: DNA cleavage activity using supercoiled bacteriophage (piX174Rf II) DNA at 10e-5 M concentration (5% control).
For experiment [7], the system named is Nucleic Acid. Put plainly: DNA cleavage activity using supercoiled bacteriophage (piX174Rf II) DNA at 10e-4 M concentration (5% control).
Experiment [8] has as its system Nucleic Acid. The experiment is described as follows: DNA cleavage activity using supercoiled bacteriophage (piX174Rf I) DNA at 10e-5 M concentration (95% control).
For experiment [9], the system named is Nucleic Acid. The experiment is described as follows: DNA cleavage activity using supercoiled bacteriophage (piX174Rf I) DNA at 10e-4 M concentration (95% control).

Molecules are shown by their SMILES.

As for `O=C(OCC1CC#C/C=C\C#CCC1)c1ccccc1` (stereo not drawn), the Cleavage in experiment [1] worked out at 0%; in experiment [2], 0%; in experiment [3] it was 15%; in [4], 3%; in experiment [5], 82%; in experiment [6] it was 7%. The Cleavage was 22% in experiment [7], 93% in experiment [8] and 78% in experiment [9].
For `O=C(OCC1CC#C/C=C\C#CCC1)c1cc2c3ccccc3c3ccccc3c2[nH]1` (stereo not drawn), the Cleavage in experiment [1] was determined as 0%; in [2] it was 0%; in experiment [3] it was 7%; in experiment [4], 5%; in [5] it was 88%; in experiment [6], 21%. The Cleavage in experiment [7] worked out at 55%; in experiment [8], 79%; in experiment [9], 45%.

For the origin of these results see ChEMBL document CHEMBL1150527, “Bifunctional antitumor agents: a DNA interactive enediyne from the pyrrolo[9,10-b]phenanthrene template” (Bioorg Med Chem Lett, 1997).
